US20240122865A1, “Methods of Protecting RNA” (Pfizer Inc., priority 2021, published 2024)

Columns and labels:
Type in all cases: biochemical, Trichoderma atroviride
FgenL model RNA [1] = settings: percent protection, pH 11.0, 44° C., 16 hours, n = 2
Protocol: The ddPCR assays measure RNA integrity by converting intact RNA to cDNA by reverse transcription, then performing digital PCR in thousands of nanoliter-sized droplets for each sample. PCR is performed within each droplet, which allows for more sensitive detection of subtle changes in RNA concentration compared to traditional PCR or qPCR. Additionally, primers/probes specific to the 5′ end of the RNA/cDNA transcript(s) are used to assess fragment integrity—e.g. degraded RNA will have fewer 5′ positive droplets. The BioRad QX200 Droplet Digital PCR System was used for the ddPCR workflow.
Basic assay procedure: RNA samples (Chi18 or FgenL fragments) were diluted to 25 fg/μL or 10 fg/μL, respectively, in 50 mM […] buffer pH 11.0. Amino acid stocks were made up in 50 mM CAPS buffer, pH 11.0 and subsequently re-adjusted to pH 11.0, post solubilization. Amino acid stocks were tested in a dose-response format to determine EC50. An amino acid dilution plate containing a ˜300 mM (or appropriate) top-concentration of amino acid in 50 mM CAPS buffer was serially (half-log) diluted for 10 times. 0.6 μL of this compound dilution plate was spotted into a 96-well PCR plate (Thermo). Sample RNAs were added (6 μL) and incubated with test amino acid as described below.
Degradation reaction: Treated RNAs were incubated for 16 hours at 30° C. for Chi18 samples or 44° C. for FgenL samples. Upon completion of the degradation reaction, cDNA was made from the intact RNA by Reverse Transcription and ddPCR run for each sample (96 well plates). Positive 5′ droplet values were divided by the total accepted droplet values for each sample and a ratio value generated for each sample.
EC50 was determined by using a four parameter logistic equation: Y=A+((B−A)/(1+(C/X)D)); where Y is percent protection, X is compound concentration, A and B are minimum and maximum asymptotes, respectively, C is EC50, and D is Hill slope.

Chi18 model RNA = assay: TapeStation Assay, Chi18 model RNA; set-up: Conc. chi18#1 / Conc. chi18#2: unit not given here; settings: for % Control N = 1 / % Control N = 2 / % Control Avg.: Chi18 RNA, 20 mM amino acids, 50 mM CAPS pH 11, 50° C. 15 min; for % Control N = 1 / % Control N = 2: vs Time 0; for % Control Avg.: vs Time 0, Avg N=2; for Conc. chi18#1 / Conc. chi18#2: intact Chi18 RNA after 15 min at 50° C.; for Conc. chi18#1: 20 mM amino acids in 50 mM CAPS pH 11, run #1; for Conc. chi18#2: 20 mM amino acids in 50 mM CAPS pH 11, run #2
Protocol: (§1) These assays were performed with amino acids and compared to a no-degradation baseline control to gauge degree of protection imparted by the amino acid. Multiple functional assay approaches were used where differing endpoints were measured including a droplet digital PCR (ddPCR) assay where intact RNA sequence was quantitated, a size exclusion base hydrolysis degradation assay that used a size exclusion column to determine the degree of degradation occurring to an mRNA construct, and finally, a TapeStation assay that utilizes capillary electrophoresis and optical detection to measure intact RNA. […] Affinity selection by mass spectrometry (ASMS), native electrospray ionization mass spectrometry (nESI-MS) and nuclear magnetic resonance (NMR) may be used as several complementary approaches to ascertain compound binding to RNA. The latter techniques utilize MS to measure mass of bound compound alone (ASMS), or mass of RNA and bound compound (nESI-MS). The nESI-MS and NMR studies may be conducted to provide direct analytical quantification of resulting complex via measurement of mass (nESI-MS) or chemical shifts (NMR). The ASMS experiment is conducted to determine saturation binding of the compound to RNA where resulting apparent binding constants (KD,App) may be generated. Further descriptions of the functional and binding assays are provided in the section below.
(§2) In principle, samples are loaded to the instrument where electrophoresis separates component RNA's on the basis of mass, and subsequently analyzes these optically as they travel through the capillary.
(§3) RNA samples were diluted to the appropriate concentration to fall within the linear range of detection for the RNA ScreenTape Assay. Model Chi18 or FgenL RNAs were diluted to 50 ng/μL in 50 mM CAPS buffer pH 11. Amino acid stocks were made up in 50 mM CAPS pH 11 and re-adjusted to >pH 11 after solubilization. […] The samples were aliquoted to PCR tubes for each time point (Time 0 or 15 minutes). Degradation reaction: Samples were incubated at 50° C. for 0 to 15 minutes in a thermocycler, removed at the appropriate time point and placed on ice. Time 0 samples remained on ice.

FgenL model RNA [2] = assay: TapeStation Assay, FgenL model RNA; set-up: Conc. FgenL#1 / Conc. FgenL#2: unit not given here; settings: for % Control N = 1 / % Control N = 2 / % Control Average: FgenL RNA, 20 mM amino acids, 50 mM CAPS pH 11, 50° C. 15 min; for % Control N = 1 / % Control N = 2: vs Time 0; for % Control Average: vs Time 0, Avg N=2; for Conc. FgenL#1 / Conc. FgenL#2: intact FgenL RNA after 15 min at 50° C.; for Conc. FgenL#1: 20 mM amino acids in 50 mM CAPS pH 11, run #1; for Conc. FgenL#2: 20 mM amino acids in 50 mM CAPS pH 11, run #2
Protocol: as §1, §2, §3

Chi18 mRNA construct = assay: Size Exclusion Base Hydrolysis Degradation Assay, Chi18; settings: for T0 R1 peak area at 250 nm: Chi18 0.1 mg/mL, 25 mM amino acid, 50 mM CAPS, T=0, replicate 1; for T2 Avg, peak area as percentage of T=0 / T2 R1 peak area at 250 nm / T10 Avg, peak area as percentage of T=0 / T10 R1 peak area at 250 nm / T24 Avg, peak area as percentage of T=0 / T24 R1 peak area at 250 nm / T0 Avg, peak area as percentage of T=0: Chi18, 25 mM amino acid; for T2 Avg, peak area as percentage of T=0 / T2 R1 peak area at 250 nm / T10 Avg, peak area as percentage of T=0 / T10 R1 peak area at 250 nm / T24 Avg, peak area as percentage of T=0 / T24 R1 peak area at 250 nm: 50 mM CAPS pH 11, room temperature; for T2 Avg, peak area as percentage of T=0 / T2 R1 peak area at 250 nm: 2 hrs; for T2 R1 peak area at 250 nm / T10 R1 peak area at 250 nm / T24 R1 peak area at 250 nm: replicate 1; for T10 Avg, peak area as percentage of T=0 / T10 R1 peak area at 250 nm: 10 hrs; for T24 Avg, peak area as percentage of T=0 / T24 R1 peak area at 250 nm: 24 hrs; for T0 Avg, peak area as percentage of T=0: T=0 (reference)
Protocol: Basic assay procedure: RNA samples were diluted to 1.0 mg/mL in DNAase/RNAase free water. Amino acids were dissolved in water to a stock solution of 100 mM and a solution of 500 mM CAPS pH 11 was used. The two mRNA constructs tested were FgenL and Chi18. Each individual sample volume was 50 μL. To determine the amount of 1 M NaOH needed to adjust the final pH to 11.0 after the addition of all sample components, the sample volume was increased 100 fold (5 mL), the volume of 1 M NaOH recorded and this value was translated back down to the 50 μL sample volume.
The mRNA and amino acid were allowed to incubate for one hour prior to the addition of CAPS pH 11. All steps of the assay were conducted at room temperature.
Degradation reaction: After the CAPS addition, the samples were injected onto the Waters H-Class UPLC system to record the first timepoint, T=O. This resulting chromatogram was processed by integrating the area of absorbance at 250 nm for the mRNA construct. Immediately following this timepoint, the pH was adjusted to 11. Subsequent time points (2 hrs, 10 hrs, and 24 hrs) recorded the Absorbance Units (peak area) at 250 nm as a percentage of the peak area determined at T=O. Integration of the chromatogram for subsequent timepoints was conducted by analyzing the area of absorbance at 250 nm contained within the same time window in which the peak eluted in T=0 for the 100% intact mRNA.

Structure (SMILES) | EC50 (FgenL model RNA [1]) [mM] | % Control N = 1 (Chi18 model RNA) [%] | % Control N = 2 (Chi18 model RNA) [%] | % Control Avg. (Chi18 model RNA) [%] | Conc. chi18#1 (Chi18 model RNA) | Conc. chi18#2 (Chi18 model RNA) | % Control N = 1 (FgenL model RNA [2]) [%] | % Control N = 2 (FgenL model RNA [2]) [%] | % Control Average (FgenL model RNA [2]) [%] | Conc. FgenL#1 (FgenL model RNA [2]) | Conc. FgenL#2 (FgenL model RNA [2]) | T0 R1 peak area at 250 nm (Chi18 mRNA construct) | T2 Avg, peak area as percentage of T=0 (Chi18 mRNA construct) [%] | T2 R1 peak area at 250 nm (Chi18 mRNA construct) | T10 Avg, peak area as percentage of T=0 (Chi18 mRNA construct) [%] | T10 R1 peak area at 250 nm (Chi18 mRNA construct) | T24 Avg, peak area as percentage of T=0 (Chi18 mRNA construct) [%] | T24 R1 peak area at 250 nm (Chi18 mRNA construct) | T0 Avg, peak area as percentage of T=0 (Chi18 mRNA construct) [%]
NCC(=O)O [Glycine] | > 30 | 42.0 | 51.4 | 46.7 | 22.4 | 27.2 | 39.4 | 37.2 | 38.3 | 13.6 | 12.9 | 32571 | 69.6 | 21950 | 0.0 | 0 | 0.0 | 0 | 100.0
N[C@@H](Cc1ccc(O)cc1)C(=O)O [Tyrosine] | > 30 | 31.9 | 31.9 | 31.9 | 17 |  | 33.9 | 21.9 | 27.9 | 11.7 | 7.59 | 21493 | 90.9 | 22110 | 56.8 | 14946 | 37.6 | 10375 | 100.0
N[C@@H](CCC(=O)N[C@@H](CS)C(=O)NCC(=O)O)C(=O)O [Glutathione] | > 30 | 29.3 | 26.7 | 28.0 | 15.6 | 14.1 | 42.9 | 35.7 | 39.3 | 14.8 | 12.4 | 13157 | 48.7 | 7747 | 0.0 | 0 | 0.0 | 0 | 100.0
N[C@@H](CCC(=O)O)C(=O)O [Glutamic acid] | 19 | 76.0 | 94.5 | 85.3 | 40.5 | 50 | 89.9 | 76.1 | 83.0 | 31 | 26.4 | 19221 | 92.8 | 16514 | 151.2 | 6324 |  | 0 | 100.0
NC(=O)CC[C@H](N)C(=O)O [Glutamine] | > 30 | 15.9 | 17.8 | 16.8 | 8.46 | 9.42 | 29.0 | 10.3 | 19.6 | 10 | 3.57 | 25301 | 51.1 | 10030 | 0.0 | 0 | 0.0 | 0 | 100.0
O=C(O)[C@@H]1CCCN1 [Proline] | > 30 | 37.0 | 34.6 | 35.8 | 19.7 | 18.3 | 21.8 | 20.3 | 21.0 | 7.52 | 7.03 | 12033 | 72.0 | 7330 | 28.5 | 2712 | 0.0 | 0 | 100.0
N[C@@H](CO)C(=O)O [Serine] | > 30 | 42.2 | 42.2 | 42.2 | 22.5 |  | 37.7 | 31.4 | 34.5 | 13 | 10.9 | 31778 | 150.4 | 19639 | 0.0 | 0 | 0.0 | 0 | 100.0
